# Results taken from EPA's ToxValDB 9.5 (doi:10.2903/j.efsa.2010.1931).
# How the values were obtained:
# Typhlodromus pyri = experiment: LR50; higher = less toxic; conditions: acute; duration: 7 days; mortality
# Colinus virginianus = conditions: for LD50: acute, oral, mortality
# Anas platyrhynchos = conditions: acute; oral; unspecified; mortality
# Oncorhynchus mykiss = conditions: mortality
# Oryctolagus sp. = conditions: chronic; body weight
# Apis mellifera = conditions: acute; duration: 48 hours; oral; unspecified; mortality
# Daphnia magna = conditions: chronic/long-term; duration: 21 days; reproduction
structure (smiles),measurement,setting,value
COCCOc1cccc2c1c(=O)c(C(=O)O)nn2-c1ccc(Cl)cc1,LR50,Typhlodromus pyri,1460 g/ha
same,LD50,Colinus virginianus; diet,> 642 mg/kg-day
same,LD50,Colinus virginianus,> 1440 mg/kg-day
same,NOEL,Colinus virginianus; reproduction developmental,119 mg/kg-day
same,LD50,Anas platyrhynchos,> 1440 mg/kg-day
same,LC50,"Oncorhynchus mykiss; acute, duration: 96 hours",570 µg/mL
same,NOEC,"Oncorhynchus mykiss; chronic/long-term, duration: 28 days",100 mg/L
same,LC50,"Tagia sp.; acute, duration: 14 days, mortality",20 mg/kg
same,NOEC,"Tagia sp.; chronic/long-term, reproduction",20 mg/kg
same,NOEL,Oryctolagus sp.,125 mg/kg-day
same,LD50,Apis mellifera,> 100 µg/piece
same,NOEC,Daphnia magna,7.03 mg/L
same,LD50,"Rattus norvegicus; acute, oral, mortality",> 5000 mg/kg-day
same,NOAEL,"Rattus norvegicus; chronic, duration: 2 years, mortality",9.1 mg/kg-day
same,NOAEL,"Rattus norvegicus; subchronic, duration: 90 days, oral, histopathology: nonneoplastic",16.5 mg/kg-day
